# Target: T1, full-length beta-catenin (Axin site) (Homo sapiens, UniProt P35222)
# T1 construct: 15 nM full-length beta-catenin, 20 nM FITC labeled peptide in buffer
# T1 sequence (P35222 1-781): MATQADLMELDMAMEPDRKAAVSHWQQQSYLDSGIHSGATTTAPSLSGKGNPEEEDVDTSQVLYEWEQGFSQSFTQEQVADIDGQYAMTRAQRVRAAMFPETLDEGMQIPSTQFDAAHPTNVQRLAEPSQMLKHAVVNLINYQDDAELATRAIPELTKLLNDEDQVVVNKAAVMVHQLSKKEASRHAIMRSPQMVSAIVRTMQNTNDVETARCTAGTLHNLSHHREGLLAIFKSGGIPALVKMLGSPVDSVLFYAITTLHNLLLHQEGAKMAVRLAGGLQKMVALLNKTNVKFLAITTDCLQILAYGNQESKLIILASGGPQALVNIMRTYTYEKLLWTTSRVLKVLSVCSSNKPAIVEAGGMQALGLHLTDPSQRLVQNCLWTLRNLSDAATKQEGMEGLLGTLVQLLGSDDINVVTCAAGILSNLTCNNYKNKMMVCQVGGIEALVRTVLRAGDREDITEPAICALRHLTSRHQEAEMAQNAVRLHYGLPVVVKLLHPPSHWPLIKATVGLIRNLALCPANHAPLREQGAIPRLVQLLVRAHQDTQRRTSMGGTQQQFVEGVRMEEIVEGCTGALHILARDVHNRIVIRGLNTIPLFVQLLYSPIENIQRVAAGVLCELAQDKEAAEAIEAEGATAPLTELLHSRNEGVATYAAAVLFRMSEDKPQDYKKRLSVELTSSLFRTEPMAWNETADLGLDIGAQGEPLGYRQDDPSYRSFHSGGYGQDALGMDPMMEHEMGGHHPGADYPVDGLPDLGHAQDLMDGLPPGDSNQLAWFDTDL
# Assay: Competition fluorescence polarization assay (Axin site probe)
# Assay type: binding
# Conditions: competition fluorescence polarization, Table 2; read-out: in vitro FP EC50
# Description: FIG. 1. […] Peptide solutions were prepared in buffer (50 mM Tris pH 8.0, 250 mM NaCl, 2% glycerol, 0.5 mM EDTA, 0.02% w/v sodium azide) using a 3-fold serial dilution from 5 μM. Probe solution (15 nM full-length 13-Catenin, 20 nM FITC labeled peptide (FITC-PEG1-PQ-S5-ILD-S5-HVRRVWR (SEQ ID NO: 1) (hydrocarbon staple formed by two S5 via olefin metathesis)) in buffer) was prepared and incubated for 5 minutes, then 40 μL per well plated in a black polystyrene 384-well plate (Corning). Equal volume of the titrated peptide was added to the plate and incubated protected from light for 15 minutes prior to read. Reads were performed on a Spectramax M5 (Molecular Devices) in duplicate.
# FIG. 7. […] BCL9 Competition FP assay: Peptide solutions were prepared in buffer (50 mM Tris pH 8.0, 250 mM NaCl, 2% glycerol, 0.5 mM EDTA, 0.02% w/v sodium azide) using a 3-fold serial dilution from 10 μM. Probe solution (250 nM full-length beta-catenin, 20 nM 5FAM labeled peptide in buffer) was prepared and 40 μL per well plated in a black polystyrene 384-well plate (Corning). Equal volume of the titrated peptide was added to the plate and incubated protected from light for 15 minutes prior to read. Reads were performed on a Spectramax M5 (Molecular Devices) in duplicate. Probe: Ac-[…]nLeu-Leu-2NapA-bala-bala-Lys5FAM-NH2 (SEQ ID NO: 2) (from Biochemistry, 2009, 48 (40), pp 9534-9541). Axin Competition FP assay: Peptide solutions were prepared in buffer (50 mM Tris pH 8.0, 250 mM NaCl, 2% glycerol, 0.5 mM EDTA, 0.02% w/v sodium azide) using a 3-fold serial dilution from 5 μM. Probe solution (15 nM full-length beta-catenin, 20 nM FITC labeled peptide in buffer) was prepared and incubated for 5 minutes, then 40 μL per well plated in a black polystyrene 384-well plate (Corning). Equal volume of the titrated peptide was added to the plate and incubated protected from light for 15 minutes prior to read. Reads were performed on a Spectramax M5 (Molecular Devices) in duplicate. Probe: FITC-StAx-33 from Grossmann et al. PNAS 109 17942-17947.
row,SMILES,EC50
1,"CC[C@H](C)[C@@H]1NC(=O)[C@H](Cc2c[nH]cn2)NC(=O)[C@H](C)NC(=O)[C@H](CC(=O)O)NC(=O)[C@H](CC(C)C)NC(=O)[C@H]([C@@H](C)CC)NC(=O)[C@](C)(NC(=O)[C@H](C)NC(C)=O)CCCCCCC=CCOC(=O)N2CC[C@@](C(=O)N[C@@H](Cc3cccc4ccccc34)C(=O)N[C@H](C(=O)N[C@@H](Cc3c[nH]c4ccccc34)C(N)=O)C(C)C)(C2)NC1=O (single isomer, unassigned) [FP0365c Isomer 2, Ac-A-R8-I-L-D-A-H-I-MB-1NapA-V-W-NH2]",500 to 5000 nM
2,"CC[C@H](C)[C@@H]1NC(=O)[C@H](Cc2c[nH]cn2)NC(=O)[C@H](C)NC(=O)[C@H](CC(=O)O)NC(=O)[C@H](CC(C)C)NC(=O)[C@H]([C@@H](C)CC)NC(=O)[C@](C)(NC(=O)[C@H](C)NC(C)=O)CCCCCCC=CCOC(=O)N2CC[C@@](C(=O)N[C@@H](Cc3cccc4ccccc34)C(=O)N[C@H](C(=O)N[C@@H](Cc3c[nH]c4ccccc34)C(N)=O)C(C)C)(C2)NC1=O (single isomer, unassigned) [FP0365c, Ac-A-R8-I-L-D-A-H-I-MB-1NapA-V-W-NH2]",100 to 500 nM
3,"CC[C@H](C)[C@@H]1NC(=O)[C@H](Cc2c[nH]cn2)NC(=O)[C@H](C)NC(=O)[C@H](CC(=O)O)NC(=O)[C@H](CC(C)C)NC(=O)[C@H]([C@@H](C)CC)NC(=O)[C@](C)(NC(=O)[C@H](C)NC(C)=O)CCCCC=CCOC(=O)N(C)CC[C@@](C)(C(=O)N[C@@H](CCCNC(=N)N)C(=O)N[C@H](C(=O)N[C@@H](Cc2c[nH]c3ccccc23)C(N)=O)C(C)C)NC1=O (single isomer, unassigned) [FP0502c Isomer 1, Ac-A-R6-I-L-D-A-H-I-MF-R-V-W-NH2]",< 100 nM
4,"CC[C@H](C)[C@@H]1NC(=O)[C@H](Cc2c[nH]cn2)NC(=O)[C@H](C)NC(=O)[C@H](CC(=O)O)NC(=O)[C@H](CC(C)C)NC(=O)[C@H]([C@@H](C)CC)NC(=O)[C@](C)(NC(=O)[C@H](C)NC(C)=O)CCCCCC=CCN2CC(C(=O)N[C@@H](CCCNC(=N)N)C(=O)N[C@H](C(=O)N[C@@H](Cc3c[nH]c4ccccc34)C(N)=O)C(C)C)(C2)NC1=O (single isomer, unassigned) [FP0516a Isomer 1, Ac-A-R7-I-L-D-A-H-I-MA-R-V-W-NH2]",100 to 500 nM
5,"CC[C@H](C)[C@@H]1NC(=O)[C@H](Cc2c[nH]cn2)NC(=O)[C@H](C)NC(=O)[C@H](CC(=O)O)NC(=O)[C@H](CC(C)C)NC(=O)[C@H]([C@@H](C)CC)NC(=O)[C@](C)(NC(=O)[C@H](C)NC(C)=O)CCCCCC=CCN2CC(C(=O)N[C@@H](CCCNC(=N)N)C(=O)N[C@H](C(=O)N[C@@H](Cc3c[nH]c4ccccc34)C(N)=O)C(C)C)(C2)NC1=O (single isomer, unassigned) [FP0516a Isomer 2, Ac-A-R7-I-L-D-A-H-I-MA-R-V-W-NH2]",500 to 5000 nM

# Further lines, results first:
row,EC50,SMILES
1,100 to 500 nM,"CC[C@H](C)[C@@H]1NC(=O)[C@H](Cc2c[nH]cn2)NC(=O)[C@H](C)NC(=O)[C@H](CC(=O)O)NC(=O)[C@H](CC(C)C)NC(=O)[C@H]([C@@H](C)CC)NC(=O)[C@](C)(NC(=O)[C@H](C)NC(C)=O)CCCCC=CCOC(=O)N(C)CC[C@@](C)(C(=O)N[C@@H](CCCNC(=N)N)C(=O)N[C@H](C(=O)N[C@@H](Cc2c[nH]c3ccccc23)C(N)=O)C(C)C)NC1=O (single isomer, unassigned) [FP0502c Isomer 2, Ac-A-R6-I-L-D-A-H-I-MF-R-V-W-NH2]"
2,100 to 500 nM,"CC[C@H](C)[C@@H]1NC(=O)[C@H](Cc2c[nH]cn2)NC(=O)[C@H](C)NC(=O)[C@H](CC(=O)O)NC(=O)[C@H](CC(C)C)NC(=O)[C@H]([C@@H](C)CC)NC(=O)[C@](C)(NC(=O)[C@H](C)NC(C)=O)CCCN(C)C(=O)OCC=CCCC[C@@](C)(C(=O)N[C@@H](CCCNC(=N)N)C(=O)N[C@H](C(=O)N[C@@H](Cc2c[nH]c3ccccc23)C(N)=O)C(C)C)NC1=O (single isomer, unassigned) [FP0506c Isomer 1, Ac-A-MI-I-L-D-A-H-I-S5-R-V-W-NH2]"
3,< 100 nM,"CC[C@H](C)[C@@H]1NC(=O)[C@H](Cc2c[nH]cn2)NC(=O)[C@H](C)NC(=O)[C@H](CC(=O)O)NC(=O)[C@H](CC(C)C)NC(=O)[C@H]([C@@H](C)CC)NC(=O)[C@](C)(NC(=O)[C@H](C)NC(C)=O)CCCN(C)C(=O)OCC=CCCC[C@@](C)(C(=O)N[C@@H](CCCNC(=N)N)C(=O)N[C@H](C(=O)N[C@@H](Cc2c[nH]c3ccccc23)C(N)=O)C(C)C)NC1=O (single isomer, unassigned) [FP0506c Isomer 2, Ac-A-MI-I-L-D-A-H-I-S5-R-V-W-NH2]"
4,> 5000 nM,"CC[C@H](C)[C@@H]1NC(=O)[C@H](Cc2ccccn2)NC(=O)[C@H](C)NC(=O)[C@H](CC(=O)O)NC(=O)[C@H](CC(C)C)NC(=O)[C@H]([C@@H](C)CC)NC(=O)[C@](C)(NC(=O)[C@H](C)NC(C)=O)CCCCCCC=CCOC(=O)N2CC[C@@](C(=O)N[C@@H](C)C(=O)N[C@H](C(=O)N[C@@H](Cc3c[nH]c4ccccc34)C(N)=O)C(C)C)(C2)NC1=O (single isomer, unassigned) [FP0554c Isomer 1, Ac-A-R8-I-L-D-A-2pyr-I-MB-A-V-W-NH2]"
5,> 5000 nM,"CC[C@H](C)[C@@H]1NC(=O)[C@H](Cc2ccccn2)NC(=O)[C@H](C)NC(=O)[C@H](CC(=O)O)NC(=O)[C@H](CC(C)C)NC(=O)[C@H]([C@@H](C)CC)NC(=O)[C@](C)(NC(=O)[C@H](C)NC(C)=O)CCCCCCC=CCOC(=O)N2CC[C@@](C(=O)N[C@@H](C)C(=O)N[C@H](C(=O)N[C@@H](Cc3c[nH]c4ccccc34)C(N)=O)C(C)C)(C2)NC1=O (single isomer, unassigned) [FP0554c Isomer 2, Ac-A-R8-I-L-D-A-2pyr-I-MB-A-V-W-NH2]"
6,> 5000 nM,"CC[C@H](C)[C@@H]1NC(=O)[C@H](Cc2ccccn2)NC(=O)[C@H](C)NC(=O)[C@H](CC(=O)O)NC(=O)[C@H](CC(C)C)NC(=O)[C@H]([C@@H](C)CC)NC(=O)[C@](C)(NC(=O)[C@H](C)NC(C)=O)CCCCCCC=CCOC(=O)N2CC[C@@](C(=O)N[C@@H](Cc3ccccc3)C(=O)N[C@H](C(=O)N[C@@H](Cc3c[nH]c4ccccc34)C(N)=O)C(C)C)(C2)NC1=O (single isomer, unassigned) [FP0555c Isomer 1, Ac-A-R8-I-L-D-A-2pyr-I-MB-F-V-W-NH2]"
7,> 5000 nM,"CC[C@H](C)[C@@H]1NC(=O)[C@H](Cc2ccccn2)NC(=O)[C@H](C)NC(=O)[C@H](CC(=O)O)NC(=O)[C@H](CC(C)C)NC(=O)[C@H]([C@@H](C)CC)NC(=O)[C@](C)(NC(=O)[C@H](C)NC(C)=O)CCCCCCC=CCOC(=O)N2CC[C@@](C(=O)N[C@@H](Cc3ccccc3)C(=O)N[C@H](C(=O)N[C@@H](Cc3c[nH]c4ccccc34)C(N)=O)C(C)C)(C2)NC1=O (single isomer, unassigned) [FP0555c Isomer 2, Ac-A-R8-I-L-D-A-2pyr-I-MB-F-V-W-NH2]"
8,> 5000 nM,"CC[C@H](C)[C@@H]1NC(=O)[C@H](Cc2ccccn2)NC(=O)[C@H](C)NC(=O)[C@H](CC(=O)O)NC(=O)[C@H](CC(C)C)NC(=O)[C@H]([C@@H](C)CC)NC(=O)[C@](C)(NC(=O)[C@H](C)NC(C)=O)CCCCCCC=CCOC(=O)N2CC[C@@](C(=O)N[C@H](C(=O)N[C@H](C(=O)N[C@@H](Cc3c[nH]c4ccccc34)C(N)=O)C(C)C)[C@@H](C)CC)(C2)NC1=O (single isomer, unassigned) [FP0556c Isomer 1, Ac-A-R8-I-L-D-A-2pyr-I-MB-I-V-W-NH2]"

# From US11198713B2, “Agents modulating beta-catenin functions and methods thereof” (FOG PHARMACEUTICALS, INC., priority 2017, dated 2021)
